Laboratory results reported in publication PMC5244392, “Interspecies cathelicidin comparison reveals divergence in antimicrobial activity, TLR modulation, chemokine induction and regulation of phagocytosis” (Scientific Reports, 2017).

Legend:
[1] = tested on: E. coli ATCC 25922 and S. aureus ATCC 29213; assay: Bacterial growth delay, additional strains (Supplementary Fig. S1); format: cell-based, Escherichia coli; Staphylococcus aureus; settings: E. coli ATCC 25922 and S. aureus ATCC 29213 compared with E. coli O78 and MRSA; MHB or DMEM + FCS; N = 2
Experimental: E. coli O78 (Zoetis Animal Health, Kalamazoo, MI, USA), E. coli ATCC 25922, Staphylococcus aureus ATCC 29213, and methicillin resistant Staphylococcus aureus (MRSA) (WKZ-2, human clinical isolate) were grown overnight from a glycerol stock in Mueller Hinton Broth (MHB) (Becton Dickinson, USA). Before use, bacteria were grown to mid-log phase in MHB for 2 hours at 37 °C, 200 RPM. Murine RAW264.7 macrophages (ATCC-TIB-71) were obtained from the American Type Culture Collection (ATCC, Manassas, VA, USA) and cultured in DMEM (41966-029; Thermo Fisher Scientific, Waltham, MA, USA) supplemented with 10% FCS (Bodinco B.V., Alkmaar, the Netherlands) (DMEM + FCS) at 37 °C, 5.0% CO2. […]
Peptides (0.63 to 40 μM) and bacteria mid-log cultures (2 * 10^6 CFU/ml) were prepared in MHB or DMEM + FCS and mixed (100 μl peptide + 100 μl bacterial culture) in a Bioscreen C analyzer plate (Oy Growth Curves Ab Ltd, Helsingfors, Finland). […] The OD was measured every 15 minutes using a wideband filter (450–580 nm) to measure bacterial growth. The time needed grow above an OD of 0.6 was determined for all concentrations. […]
E. coli ATCC 25922 and S. aureus ATCC 29213 (1x10^6 CFU/ml) were grown in MHB or DMEM+FCS for 16 hours under constant shak ing (200 RPM) in the presence of diﬀerent concentration of cathelicidins (0.31 µM, 0.63 µM, 1.25 µM, 2.5 µM, 5 µM, 10 µM, and 20 µM). The OD was measured ever y 15 minutes. […]

E. coli O78 = assay: Sytox green membrane leakage assay; format: cell-based, Escherichia coli; settings: 30 min at 37 °C, MHB or DMEM + FCS, peptide 0.31-20 μM; N = 3
Experimental: Peptide dilutions and bacteria suspensions were prepared as described above for testing the antimicrobial activity in the Bioscreen C analyzer. Peptide dilutions and bacteria were mixed 1:1 and incubated for 30 minutes at 37 °C. Next, bacteria were washed once with PBS and transferred to black 96-wells assay plates (Corning, OH, USA). Bacteria were incubated with […] sytox green (Life technologies) (λex 504 nm and λem 523 nm) for 5 minutes after which fluorescence was measured using a FLUOstar Omega microplate reader (BMG Labtech GmbH, Ortenberg, Germany).
The capacity of peptides to induce membrane leakage was tested using the permeability marker sytox green. […] For MRSA, fluorescence levels were generally very low even at >Cmax levels, hampering a good comparison between growth delay and permeabilization for this strain.
Supplementary Figure 2: Bacterial membrane leakage
E. Coli O78 and MRSA (1x10^6 CFU/ml) were grown in MHB or DMEM+FCS for 30 minutes at 37°C in the presence of diﬀerent concentrations of cathelicidins (0.31 µM, 0.63 µM, 1.25 µM, 2.5 µM, 5 µM, 10 µM, and 20 µM), after which the cells were stained with sytox green to measure membrane leakage. E. Coli in MHB, dark green line; E. Coli in DMEM, light green line; MRSA in MHB, dark blue line; MRSA in DMEM, light blue line. Results are presented as average +/- SEM (N = 3).
Peptide concentration (µ M) […]

Sequence: RRRPRPPYLPRPRPPPFFPPRLPPRIPPGFPPRFPPRFP [PR-39, porcine proline-rich cathelicidin forming a polyproline helix, 39 residues, charge +10]
- Fold difference in Cmax with other bacterial strains [1]: 8–16 fold
- Membrane permeability (sytox green fluorescence), in words (E. coli O78): minimal permeability
